Broadly, the half-life is the time needed for the level to fall by half in the phase considered.

For data set [1] the following is noted: humans, oral administration; cited from earlier work.
Data set [2] concerns naturally occurring pemphigus foliaceus (PF). Particulars: dogs with newly diagnosed pemphigus foliaceus; cited from earlier work.
For data set [3], the system named is patients with moderate-to-severe CSU. Description: Phase 2 CSU study: safety (TEAEs, SAEs, AESIs), double-blind period.
The test system of a further data set is healthy volunteers. Particulars: cited from earlier work.
Where [4] appears, read: 400 mg BID (N = 41), double-blind period, safety population.

Consider `CC(C)(C=C(C#N)C(=O)N1CCC[C@@H](n2nc(-c3ccc(Oc4ccccc4)cc3F)c3c(N)ncnc32)C1)N1CCN(C2COC2)CC1` [rilzabrutinib, (R)-2-[3-[4-amino-3-(2-fluoro-4-phenoxy-phenyl)pyrazolo[3,4-d]pyrimidin-1-yl]piperidine-1-carbonyl]-4-methyl-4-[4-(oxetan-3-yl)piperazin-1-yl]pent-2-enenitrile], for which, in data set [1], the absorption result is on record as “rapidly absorbed” and the half-life is 3 to 4 h. Also, the “cases with disease controlled without corticosteroid” value in data set [2] is 4 of 4. Also, in data set [3] (setting [4]), the “Participants with any TEAE” value is reported as 30 (73.2) n (%) and the “Participants with any TEAE leading to death” value (“Participants … to death” below) is 0 n (%). Further, in data set [3] (400 mg QPM (N = 38), double-blind period, safety population), the “Participants … to death” value is recorded as 0 n (%). Further, the “Participants … to death” value in data set [3] (400 mg TID (N = 41), double-blind period, safety population) is 0 n (%). Besides, the “patients with ALT increases>3×ULN (AESI)” value in data set [3] (BID cohort) worked out at 1 patient. In addition, in data set [3] (QPM cohort), the “patients with ALT increases>3×ULN (AESI)” value was determined as 2 patients. Further, the “patients with ALT increases>3×ULN (AESI)” value in data set [3] (TID cohort) came to 1 patient. Further, in data set [3] (double-blind period), the “drug-induced liver injuries (including Hy's law)” value is “no drug-induced liver injuries” and the “severe/serious infections or opportunistic infections” value is “no severe/serious infections or opportunistic infections”. In data set [3] (throughout the study), the deaths result was “no deaths”. Also, the “treatment-emergent SAEs” value in data set [3] (throughout the study, same incidence across all rilzabrutinib dosing groups) is recorded as 3. In the data set on healthy volunteers, the “most commonly reported adverse events” value was “gastrointestinal adverse events, including nausea/vomiting and diarrhea”; the “serious adverse events or deaths” value is listed as “No serious adverse events or deaths”.
